Measurements published in patent US8039483B2, “Quinuclidine carbonate salts and medicinal composition thereof” (Chiesi Farmaceutici S.p.A., priority 2008, dated 2011).

Legend:
[1] = Plasma stability in rat plasma; assay type: in vitro ADME; settings: 37° C.
Description: (§1) Briefly 10 μl of a stock solution 250 μM of compound 1 in acetonitrile were added to 1 ml of rat and human plasma, and samples were incubated at 37° C. Plasma (50 μL) was taken after 0, 1 and 5 hours of incubation and added to 140 μl of acetonitrile with addition of verapamil as internal standard (250 ng/ml). Samples were analysed by HPLC-MS/MS analysis.
(§2) Plasma stability was calculated as percentage remaining after 1 and 5 hours by dividing the peak area at 1 or 5 hours by the area of the peak at time 0. […] The other compounds of the invention behave similarly.

[2] = Plasma stability in human plasma; assay type: in vitro ADME; settings: 37° C.
Description: as §1, §2

Measured: plasma stability, percentage remaining

O=C(OC(c1cccc(F)c1)c1cccc(F)c1)O[C@H]1C[N+]2(CC(=O)c3cccs3)CCC1CC2.[Cl-] [Compound 1, (R)-3-[Bis-(3-fluoro-phenyl)-methoxycarbonyloxy]-1-(2-oxo-2-thiophen-2-yl-ethyl)-1-azonia-bicyclo[2.2.2]octane; chloride]
less than 2%: [1]; after 1 hour of incubation | [1]; after 5 hours of incubation | [2]; after 1 hour of incubation | [2]; after 5 hours of incubation
